Data reported in ChEMBL document CHEMBL1201862, “PubChem BioAssay data set” (2004).
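How tested: cells in 96-well plates exposed to compound for 48 hours at five concentrations. GI50: concentration for 50% inhibition of growth.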 Activity calls are given as the source filed them. Cut-off read from the data, not from the text of the source: active = GI50 up to about 1.1 µM and inactive = higher.

What was measured:
Assay in all cases: DTP human tumour cell line panel, 48 h
BT-549 = test system: BT-549
DU-145 = test system: DU-145
EKVX = test system: EKVX
HCT-15 = test system: HCT-15
HOP-62 = test system: HOP-62
HT-29 = test system: HT-29
MDA-MB-435 = test system: MDA-MB-435
NCI-H522 = test system: NCI-H522
PC-3 = test system: PC-3
SK-MEL-2 = test system: SK-MEL-2
SNB-75 = test system: SNB-75
TK-10 = test system: TK-10
UACC-257 = test system: UACC-257
UO-31 = test system: UO-31
HOP-92 = test system: HOP-92
K562 = test system: K562
OVCAR-3 = test system: OVCAR-3
MDA-N = test system: MDA-N

SMILES	GI50 (BT-549)	GI50 (DU-145)	GI50 (EKVX)	GI50 (HCT-15) [µM]	GI50 (HOP-62)	GI50 (HT-29)	GI50 (MDA-MB-435)	GI50 (NCI-H522)	GI50 (PC-3)	GI50 (SK-MEL-2)	GI50 (SNB-75)	GI50 (TK-10)	GI50 (UACC-257)	GI50 (UO-31)	GI50 (HOP-92)	GI50 (K562)	GI50 (OVCAR-3)	GI50 (MDA-N)
COCN1C(=O)[C@@H]2CCCN2C(=O)c2cc([N+](=O)[O-])ccc21	62.5 µM (inactive)	39.8 µM (inactive)	> 100 µM (inactive)	> 100	41.1 µM (inactive)	71.9 µM (inactive)	66.2 µM (inactive)	16 µM (inactive)	36.3 µM (inactive)	64.1 µM (inactive)	67.9 µM (inactive)	> 100 µM (inactive)	> 100 µM (inactive)	35.5 µM (inactive)	–	–	–	–
O=C(COc1ccc(Cl)c(Cl)c1)Nc1ccc[n+](Cc2ccc(S(=O)(=O)F)c(Cl)c2)c1	> 100 µM (inactive)	> 100 µM (inactive)	> 100 µM (inactive)	> 100	> 100 µM (inactive)	> 100 µM (inactive)	> 100 µM (inactive)	> 100 µM (inactive)	> 100 µM (inactive)	> 100 µM (inactive)	> 100 µM (inactive)	> 100 µM (inactive)	> 100 µM (inactive)	> 100 µM (inactive)	> 100 µM (inactive)	> 100 µM (inactive)	> 100 µM (inactive)	–
CCc1c2c(cc3c1CC1(C3)Cc3cc4c(c(C(=O)OC)c3C1)CCCC4)CCCC2 (stereo unspecified)	–	–	28.4 µM (inactive)	> 100	> 100 µM (inactive)	> 100 µM (inactive)	> 100 µM (inactive)	> 100 µM (inactive)	> 100 µM (inactive)	> 100 µM (inactive)	–	> 100 µM (inactive)	> 100 µM (inactive)	> 100 µM (inactive)	> 100 µM (inactive)	> 100 µM (inactive)	> 100 µM (inactive)	> 100 µM (inactive)
CCCCC1Cc2ccccc2-c2nc3ccccc3n21 (stereo unspecified)	–	18.4 µM (inactive)	21 µM (inactive)	12.6	19.1 µM (inactive)	14.5 µM (inactive)	17.1 µM (inactive)	13 µM (inactive)	10.3 µM (inactive)	16.4 µM (inactive)	–	17.4 µM (inactive)	17.5 µM (inactive)	19.1 µM (inactive)	16.4 µM (inactive)	12.6 µM (inactive)	15.2 µM (inactive)	15.1 µM (inactive)
Cc1cn(C2OC(CO[Si](C)(C)C(C)(C)C)C(N(C)O[Si](C)(C)C(C)(C)C)C2[Se]c2ccccc2)c(=O)[nH]c1=O (stereo unspecified)	–	8.93 µM (inactive)	–	4.59	4.76 µM (inactive)	3.34 µM (inactive)	3.79 µM (inactive)	3.25 µM (inactive)	3.85 µM (inactive)	7.6 µM (inactive)	4.79 µM (inactive)	5.24 µM (inactive)	–	3.23 µM (inactive)	1.9 µM (inactive)	7.59 µM (inactive)	4.39 µM (inactive)	8.93 µM (inactive)
Nc1nc(N)c2ncn(Cc3ccccc3CCl)c2n1	> 100 µM (inactive)	> 100 µM (inactive)	> 100 µM (inactive)	> 100	> 100 µM (inactive)	> 100 µM (inactive)	> 100 µM (inactive)	> 100 µM (inactive)	> 100 µM (inactive)	> 100 µM (inactive)	> 100 µM (inactive)	> 100 µM (inactive)	> 100 µM (inactive)	> 100 µM (inactive)	> 100 µM (inactive)	50.4 µM (inactive)	> 100 µM (inactive)	–
O=C(/C=C/c1ccccc1)c1cc(C(=O)/C=C/c2ccccc2)c(O)cc1O	> 100 µM (inactive)	–	18.7 µM (inactive)	> 100	> 100 µM (inactive)	> 100 µM (inactive)	> 100 µM (inactive)	–	> 100 µM (inactive)	> 100 µM (inactive)	–	> 100 µM (inactive)	> 100 µM (inactive)	41.3 µM (inactive)	> 100 µM (inactive)	–	–	> 100 µM (inactive)
O/N=C1\C/C(=N\O)c2c(Br)sc(Br)c21	31.6 µM (inactive)	39.1 µM (inactive)	16.9 µM (inactive)	17.3	32.1 µM (inactive)	> 100 µM (inactive)	41.8 µM (inactive)	17.7 µM (inactive)	–	43.4 µM (inactive)	17.3 µM (inactive)	38.5 µM (inactive)	> 100 µM (inactive)	20.6 µM (inactive)	46 µM (inactive)	37.5 µM (inactive)	30.6 µM (inactive)	78.5 µM (inactive)
CCC(=O)O[C@H]1CC[C@H]2[C@@H]3CCC4=C/C(=N/NC(=O)c5cccc6c(=O)c7ccccc7[nH]c56)CC[C@]4(C)[C@H]3CC[C@]12C	> 25 µM (inactive)	–	> 25 µM (inactive)	> 25	> 25 µM (inactive)	> 25 µM (inactive)	> 25 µM (inactive)	> 25 µM (inactive)	> 25 µM (inactive)	> 25 µM (inactive)	> 25 µM (inactive)	> 25 µM (inactive)	> 25 µM (inactive)	> 25 µM (inactive)	> 25 µM (inactive)	> 25 µM (inactive)	> 25 µM (inactive)	> 25 µM (inactive)
